# Measurements published in patent publication US6123916A, “Therapeutic use of somatostatin peptides” (priority 1990, dated 2000).
# Tested on: GH-release (serum GH-level)
# Assay: Depression of serum GH-levels in male rats 1 hour after s.c. administration (radio-immuno-assay)
# Type: in vivo, rat
# Conditions: blood taken 1 hour after administration
# Protocol: This test is carried out employing male rats. The test-substance is administered at varying, logarithmically staggered doses employing at least 5 rats per dose. 1 hour after s.c. administration of the test substance blood is taken. The determination of the blood serum GH-level is effected by radio-immuno-assay.
structure (smiles),measurement,value
"C[C@H](N)C(=O)NCC(=O)N[C@H]1CSSC[C@@H](C(=O)O)NC(=O)[C@H](CO)NC(=O)[C@H]([C@@H](C)O)NC(=O)[C@H](Cc2ccccc2)NC(=O)[C@H]([C@@H](C)O)NC(=O)[C@H](CCCCN)NC(=O)[C@H](Cc2c[nH]c3ccccc23)NC(=O)[C@H](Cc2ccccc2)NC(=O)[C@H](Cc2ccccc2)NC(=O)[C@H](CC(N)=O)NC(=O)[C@H](CCCCN)NC1=O [natural somatostatin, somatostatin]",ID50 (amount of compound required to lower the GH content by 50% compared with untreated control animals),0.95 mg/kg
